Experiments:
[1] = target: T1, KRAS^G12D I36N (Homo sapiens, UniProt P01116, G12D/I36N); experiment: Microscale thermophoresis on binding-site mutant KRAS^G12D I36N; settings: MST
T1 construct: His6 (N); made in house
Method: Mutagenesis of the KRAS^G12D plasmid was performed using a QuikChange XL site-directed mutagenesis kit from Agilent technologies, according to the manufacturer's protocol. Primers were designed using the Agilent QuikChange Primer Design application and purchased from Integrated DNA Technologies. KRAS^G12D D38A forward primer 5′ ATATGATCCAACAATAGAGGCTTCCTACAGGAAGCAAGTAG 3′ (SEQ ID NO: 66), KRAS^G12D D38A reverse primer 5′ CTACTTGCTTCCTGTAGGAAGCCTCTATTGTTGGATCATAT 3′ (SEQ ID NO: 67), KRAS^G12D I36N forward primer 5′ CATTTTGTGGACGAATATGATCCAACAAATGAGGATTCCTACAGG 3′ (SEQ ID NO: 68), KRAS^G12D I36N reverse primer 5′ CCTGTAGGAATCCTCATTTGTTGGATCATATTCGTCCACAAAATG 3′ (SEQ ID NO: 69). DNA sequencing was performed to confirm the correct amino acid sequence of the construct (GeneWiz, Inc.).
KRAS^G12D (250 μM) in 25 mM HEPES, 100 mM sodium chloride, 2 mM TCEP with 20 mM EDTA and 1 mM GppNHp was shaken at 220 rpm at 30° C. to remove the endogenous nucleotide, The solution was placed on ice for 2 minutes prior to the addition of 65 mM MgCl2. After an additional 10 minutes incubation on ice, 200 uL of a 10 uM solution of KRAS^G12D was combined with 200 uL of a 20 uM solution of NT-647-NHS-ester dye (from a 652.4 μM stock). The protein/dye mixture was rotated at 4° C. for 30 minutes, before being separated from the excess dye and buffer exchanged into 25 mM Tris, 100 mM sodium chloride, 2 mM TCEP, and 5 mM MgCl2 via a nap-5 column. The test compounds were arrayed across a 16-point dilution series consisting of 1.5% DMSO with 25 mM Tris, 100 mM NaCl, 2 mM TCEP, 5 mM MgCl2 and 0.05% tween-20. Thermophoretic movement of the fluorescently labeled protein with the inhibitors was performed using a Monolith NT.115 (Nanotemper Technologies). RALA and RHOA were purchased commercially from Abcam (RALA CN:ab102555, RHOA CN:ab101594). […]

[2] = target: T2, GppNHp-loaded KRASG12D (Homo sapiens, UniProt P01116, G12D); experiment: Isothermal titration calorimetry; type: binding; settings: ITC, 25° C.; read-out: dissociation constant
T2 construct: made in house; host or cells: Escherichia coli BL21-Gold (DE3)
T2 sequence (P01116 1-169 isoform P01116-2 G12D): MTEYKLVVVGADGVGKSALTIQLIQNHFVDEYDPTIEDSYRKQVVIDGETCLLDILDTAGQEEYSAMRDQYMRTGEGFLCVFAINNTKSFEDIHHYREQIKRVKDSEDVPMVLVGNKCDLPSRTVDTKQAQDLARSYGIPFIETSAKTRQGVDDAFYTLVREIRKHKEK
Method: Isothermal Titration Calorimetry (ITC)
All ITC experiments were carried out at 25° C. on a MicoCal Auto-ITC200 system (GE Healthcare).
450 μL of the compound solution was loaded into the cell at 250 μM in ITC buffer (25 mM Tris pH 7.4, 1 mM TCEP, 100 mM NaCl, 5 mM MgCl2, 0.05% Tween-20) with a final DMSO concentration at 1.25% (v/v). KRAS^G12D⋅GppNHp was buffer exchanged into same ITC buffer using Amicon Ultra 10 kDa size exclusion filter spin columns (buffer replaced with ITC buffer four times). Prior to loading 130 μL of KRAS^G12D⋅GppNHp into the syringe at 2.5 mM, DMSO was added to match the amount DMSO present in the cell. ITC titration experiments were carried out at 25° C. with 19 injections, 2 μl per injection, and 180 seconds between each injection. Reference cell power was set to 5 μcal/sec. A control experiment was performed where ITC buffer was titrated into compound 31MEW44 alone to account for heat released due to dilution. This background was subtracted from test data before the final dissociation constant was obtained. Data were analyzed using the one-site binding model in Origin 7.1 software. The dissociation constant, Kd, was calculated according to equation Kd=1/Ka. Gibbs free energy, ΔG, was calculated from the equation ΔG=−RTInKa. −TΔS was calculated from the equation ΔG=ΔH−TΔS. All other parameters, Ka, n, ΔH, were determined directly from the titration data.

[3] = tested on: active GTP-bound RALA in BJeLR cells; experiment: RALA activation assay using RALBP1; type: cell-based; settings: 2% FBS
Method: BJeLR cells were seeded 16 hours prior to use in 2% FBS in DMEM. […] After 6 hours cells were washed twice with ice cold buffer (25 mM tris, 100 mM NaCl, 1 mM TCEP, 5 mM MgCl2, 0.1% tween-20 and 1 protease inhibitor/25 mL). Cells were scrapped, pelleted at 13,000 rpm for 10 minutes at 4° C., then passed through a 26 gauge needle several times. The solution was spun down a second time at 13,000 rpm for 15 minutes at 4° C., to remove unlysed cells and debris. RALBP1 agarose beads (EMD Millipore) were then added to the lysate and the solution was rotated at 4° C. for 2 hours. The solutions were spun down at 1500×g for 2 minutes and the supernatant was removed by syringe. The beads were washed twice by this process with buffer, then resuspended in 2.5×SDS.

[4] = tested on: MDA-MB-231 xenografts; experiment: Mouse xenograft, pharmacodynamic study; type: in vivo
Method: For the pharmacodynamic study, athymic nude mice (eight weeks; Charles River Laboratories) were injected with 8 million MDA-MB-231 cells subcutaneously. […] Tumor size was measured by electronic caliper every two days and calculated using the formula: 0.523×Length×width^2.
Mice were euthanized using a CO2 gas chamber before xenograft dissection. Tumors were then weighed, frozen and stored at −80° C. Segments of the tumor were taken (about 60 mg) and suspended in 120 μL lysis buffer. Xenografts were then lysed by sonication (40 amp for 10-15 seconds) and samples were centrifuged at 14,000 rpm at 4° C. for 30 minutes to remove unlysed cells and debris. The supernatant was then analyzed by Western blotting using the aforementioned protocol.

[5] = target: GppNHp-loaded RHEB (Homo sapiens, UniProt Q15382); experiment: Microscale thermophoresis on GppNHp-loaded RHEB; type: binding; settings: MST, up to 190 μM
Chain of GppNHp-loaded RHEB (Q15382 whole entry): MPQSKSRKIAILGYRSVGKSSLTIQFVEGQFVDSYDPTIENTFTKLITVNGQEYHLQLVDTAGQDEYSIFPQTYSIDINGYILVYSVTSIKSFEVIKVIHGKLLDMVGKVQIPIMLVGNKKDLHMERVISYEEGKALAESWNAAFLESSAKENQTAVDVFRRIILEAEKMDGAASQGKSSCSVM
Method: KRAS^G12D (250 μM) in 25 mM HEPES, 100 mM sodium chloride, 2 mM TCEP with 20 mM EDTA and 1 mM GppNHp was shaken at 220 rpm at 30° C. to remove the endogenous nucleotide, The solution was placed on ice for 2 minutes prior to the addition of 65 mM MgCl2. After an additional 10 minutes incubation on ice, 200 uL of a 10 uM solution of KRAS^G12D was combined with 200 uL of a 20 uM solution of NT-647-NHS-ester dye (from a 652.4 μM stock). The protein/dye mixture was rotated at 4° C. for 30 minutes, before being separated from the excess dye and buffer exchanged into 25 mM Tris, 100 mM sodium chloride, 2 mM TCEP, and 5 mM MgCl2 via a nap-5 column. The test compounds were arrayed across a 16-point dilution series consisting of 1.5% DMSO with 25 mM Tris, 100 mM NaCl, 2 mM TCEP, 5 mM MgCl2 and 0.05% tween-20. Thermophoretic movement of the fluorescently labeled protein with the inhibitors was performed using a Monolith NT.115 (Nanotemper Technologies). RALA and RHOA were purchased commercially from Abcam (RALA CN:ab102555, RHOA CN:ab101594).
To provide evidence that the compound indeed was selective for RAS GTPases, MST binding measurements were performed on GppNHp-loaded RHEB, RHOA and RALA (FIG. 14J).

T1 sequence (P01116 1-169 isoform P01116-2 G12D/I36N): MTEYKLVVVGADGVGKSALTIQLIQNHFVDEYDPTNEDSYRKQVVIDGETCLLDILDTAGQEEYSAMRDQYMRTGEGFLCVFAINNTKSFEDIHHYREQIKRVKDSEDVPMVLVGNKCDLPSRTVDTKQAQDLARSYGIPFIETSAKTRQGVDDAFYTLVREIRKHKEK

NC1(C(=O)NCCCn2cc(-c3ccc(OC(F)(F)F)cc3)c3cc(CN4CCN(Cc5c(Cl)cccc5Cl)CC4)ccc32)CCNCC1 [Compound 31MEW44, 4-amino-N-(3-(5-((4-(2,6-dichlorobenzyl)piperazin-1-yl)methyl)-3-(4-(trifluoromethoxy)phenyl)-1H-indol-1-yl)propyl)piperidine-4-carboxamide]
Kd ([1]; 31MEW44, FIG. 14H): 200 µM
Kd ([1]; 31MEW44, first experiment): 1.1 µM
Kd [2]: 34 µM
active GTP-bound RALA [3]: decreased levels of active GTP-bound RALA
toxicity ([4]; 30 mg/kg daily intraperitoneal injection): No overt toxicity
tumor pERK levels lower than vehicle ([4]; Western blotting of xenografts, 30 mg/kg i.p.): about 70%
binding [5]: no binding was observed

From patent US9926293B2, “Multivalent RAS binding compounds” (THE TRUSTEES OF COLUMBIA UNIVERSITY IN THE CITY OF NEW YORK, priority 2014, dated 2018)
